Data: ChEMBL document CHEMBL3352474, “Design, synthesis and biological evaluation of FLT3 covalent inhibitors with a resorcylic acid core” (Bioorg Med Chem, 2014)
pIC50: −log10 of the molar value.

Legend:
[1] = target: Receptor-type tyrosine-protein kinase FLT3 (Homo sapiens) (UniProt P36888)
Description: Binding affinity to FLT3 (unknown origin) assessed as dissociation half life

[2] = Antiproliferative activity against human THP1 cells assessed as growth inhibition at 5 uM after 72 hrs by luminescent cell viability assay; type: functional; conditions: THP-1, 72 h, read-out: GI
[3] = Antiproliferative activity against human HL60 cells assessed as growth inhibition at 5 uM after 72 hrs by luminescent cell viability assay; type: functional; conditions: HL-60, 72 h, read-out: GI
MV4-11 [4] = assay: Antiproliferative activity against human MV4-11 cells assessed as growth inhibition at 5 uM after 72 hrs by luminescent cell viability assay; type: functional; conditions: MV4-11, 72 h, read-out: GI
[5] = target: Receptor-type tyrosine-protein kinase FLT3 (Homo sapiens, UniProt P36888, ITD); assay: Inhibition of recombinant FLT3 ITD mutant (unknown origin) by RBC kinase assay
MV4-11 [6] = assay: Antiproliferative activity against human MV4-11 cells after 72 hrs by luminescent cell viability assay; type: functional, cell-based; conditions: MV4-11, 72 h
[7] = target: Receptor-type tyrosine-protein kinase FLT3 (Homo sapiens, UniProt P36888, D835Y); assay: Inhibition of recombinant FLT3 D835Y mutant (unknown origin) by TR-FRET assay
[8] = target: MAP kinase-interacting serine/threonine-protein kinase 1 (Homo sapiens) (UniProt Q9BUB5); assay: Inhibition of MNK1 (unknown origin) at 10 uM
MAP kinase-interacting serine/threonine-protein kinase 1 (Homo sapiens), sequence (Q9BUB5 whole entry, looked up): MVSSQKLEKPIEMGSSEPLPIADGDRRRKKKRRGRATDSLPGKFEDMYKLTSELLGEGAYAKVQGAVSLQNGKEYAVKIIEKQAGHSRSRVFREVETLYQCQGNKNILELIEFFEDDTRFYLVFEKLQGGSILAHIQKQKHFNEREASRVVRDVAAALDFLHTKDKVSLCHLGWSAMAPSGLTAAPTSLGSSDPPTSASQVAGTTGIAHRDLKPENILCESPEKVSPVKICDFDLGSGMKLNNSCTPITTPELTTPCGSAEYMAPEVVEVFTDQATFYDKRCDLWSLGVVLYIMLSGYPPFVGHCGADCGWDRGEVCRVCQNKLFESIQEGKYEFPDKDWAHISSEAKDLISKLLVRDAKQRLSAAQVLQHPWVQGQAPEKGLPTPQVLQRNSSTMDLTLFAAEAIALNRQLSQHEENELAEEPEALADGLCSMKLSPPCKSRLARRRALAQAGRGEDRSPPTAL

[9] = Antiproliferative activity against human THP1 cells after 72 hrs by luminescent cell viability assay; type: functional, cell-based; conditions: THP-1, 72 h
[10] = Antiproliferative activity against human HEK293T cells assessed as growth inhibition at 5 uM after 72 hrs by luminescent cell viability assay; type: cell-based, HEK-293T; conditions: read-out: GI
[11] = target: MAP kinase-interacting serine/threonine-protein kinase 2 (Homo sapiens) (UniProt Q9HBH9); assay: Inhibition of MNK2 (unknown origin) at 10 uM
MAP kinase-interacting serine/threonine-protein kinase 2 (Homo sapiens), sequence (Q9HBH9 whole entry, looked up): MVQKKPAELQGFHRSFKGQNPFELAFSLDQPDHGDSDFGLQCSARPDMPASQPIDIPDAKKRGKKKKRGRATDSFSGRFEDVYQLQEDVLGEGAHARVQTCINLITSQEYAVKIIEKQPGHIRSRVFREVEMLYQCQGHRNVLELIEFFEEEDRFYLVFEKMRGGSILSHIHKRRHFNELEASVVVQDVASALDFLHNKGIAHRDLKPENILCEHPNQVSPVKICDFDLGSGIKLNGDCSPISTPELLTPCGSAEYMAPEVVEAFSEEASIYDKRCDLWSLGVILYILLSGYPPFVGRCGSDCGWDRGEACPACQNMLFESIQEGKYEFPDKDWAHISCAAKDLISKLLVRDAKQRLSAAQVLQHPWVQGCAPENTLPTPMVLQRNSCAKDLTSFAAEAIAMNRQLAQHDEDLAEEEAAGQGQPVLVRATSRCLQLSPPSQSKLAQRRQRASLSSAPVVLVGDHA

K562 = assay: Antiproliferative activity against human K562 cells assessed as growth inhibition at 5 uM after 72 hrs by luminescent cell viability assay; type: functional; conditions: K562, 72 h, read-out: GI
[12] = target: T1, Receptor-type tyrosine-protein kinase FLT3 (Homo sapiens, UniProt P36888); assay: Inhibition of recombinant FLT3 (unknown origin) by TR-FRET assay
T1 sequence (P36888 whole entry): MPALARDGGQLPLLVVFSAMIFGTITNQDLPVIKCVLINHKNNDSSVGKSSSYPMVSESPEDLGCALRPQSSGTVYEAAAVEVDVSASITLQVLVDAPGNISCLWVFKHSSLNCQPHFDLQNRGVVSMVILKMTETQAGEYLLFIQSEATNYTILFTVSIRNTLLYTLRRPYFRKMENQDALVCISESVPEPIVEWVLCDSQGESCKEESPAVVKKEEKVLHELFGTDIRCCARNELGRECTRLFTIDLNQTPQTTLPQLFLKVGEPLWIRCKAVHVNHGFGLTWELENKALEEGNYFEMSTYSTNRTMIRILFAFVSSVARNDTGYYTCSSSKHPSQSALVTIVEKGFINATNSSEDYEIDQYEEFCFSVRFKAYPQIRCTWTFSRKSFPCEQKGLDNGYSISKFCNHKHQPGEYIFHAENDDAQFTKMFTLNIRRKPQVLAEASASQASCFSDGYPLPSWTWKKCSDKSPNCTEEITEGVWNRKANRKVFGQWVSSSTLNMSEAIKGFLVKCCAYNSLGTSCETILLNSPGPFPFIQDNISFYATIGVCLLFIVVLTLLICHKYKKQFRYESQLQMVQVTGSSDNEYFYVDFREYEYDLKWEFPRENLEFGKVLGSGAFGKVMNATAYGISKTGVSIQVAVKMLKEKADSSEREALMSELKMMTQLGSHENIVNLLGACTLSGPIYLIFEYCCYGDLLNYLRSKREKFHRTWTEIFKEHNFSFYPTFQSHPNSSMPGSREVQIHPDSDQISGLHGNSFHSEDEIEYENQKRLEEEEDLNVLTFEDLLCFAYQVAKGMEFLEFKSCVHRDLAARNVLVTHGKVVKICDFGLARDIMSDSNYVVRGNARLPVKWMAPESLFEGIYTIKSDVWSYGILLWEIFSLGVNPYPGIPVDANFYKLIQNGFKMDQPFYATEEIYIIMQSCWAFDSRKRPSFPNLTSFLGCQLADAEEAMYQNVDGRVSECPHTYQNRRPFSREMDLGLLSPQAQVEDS

SMILES | T1/2 [1] | pIC50 [5] | pIC50 (MV4-11 [6]) | pIC50 [7] | inhibition [8] | inhibition [11] | pIC50 [12] | inhibition of growth at 5 µM [2] | inhibition of growth at 5 µM [3] | inhibition of growth at 5 µM (MV4-11 [4]) | pIC50 [9] | inhibition at 72 h, 5 µM [10] | inhibition of growth at 5 µM (K562)
CCN(CC)CCNC(=O)c1c(C)[nH]c(/C=C2\C(=O)Nc3ccc(F)cc32)c1C | 11.3 min |  |  |  |  |  |  |  |  |  |  |  | 
COc1cc(/C=C/CN2C(=O)C=CC2=O)c(C(=O)OC(C)C)c(OC(C)=O)c1 |  | 4.66 | 5.67 | 5.44 | 6.7% | 5% | 5.47 | 3.3% | 87.9% | 99.8% | 4.98 | 47.4% | 99.2%
COc1cc(O)c(C(=O)OC(C)C)c(/C=C/CN2C(=O)C=CC2=O)c1 |  | 5.01 | 5.76 | 5.87 | 5.4% | 4.1% | 6.27 | 41.8% | 65.7% | 99.8% | 5.14 | 8% | 95.7%

More lines, main results first:

T1/2 [1] | pIC50 [5] | pIC50 (MV4-11 [6]) | pIC50 [7] | inhibition [8] | inhibition [11] | pIC50 [12] | SMILES | inhibition of growth at 5 µM [2] | inhibition of growth at 5 µM [3] | inhibition of growth at 5 µM (MV4-11 [4]) | pIC50 [9] | inhibition at 72 h, 5 µM [10] | inhibition of growth at 5 µM (K562)
 | < 4.52 | 5.71 | 5.68 | 9.7% | 0% | 5.57 | COc1cc(O)c(C(=O)OCC2CCCCC2)c(/C=C/CN2C(=O)C=CC2=O)c1 | 5.9% | 71% | 99.8% | 5.11 | 6.9% | 85.1%
 | 5.65 | 5.33 | 4.92 | 5.6% | 13.9% | 4.97 | C=CS(=O)(=O)NC/C=C/c1cc(OC)cc(O)c1C(=O)OC(C)C | 19.9% | 16.6% | 72.3% | 4.83 | 0.1% | 36.2%
